{"source": "patent US5654398A", "about": "“Compositions and methods for inhibiting replication of human immunodeficiency virus-1” (priority 1993, dated 1997)", "key": {"mutant (C46-G74) IIB RNA": {"target": "mutant (C46-G74) IIB RNA", "assay_type": "binding, HIV-1", "conditions": "for Kd: read-out: Knonsp (apparent Kd, mutant IIB RNA)", "method": "(§1) Gel shift assays were performed at 4° C. unless described otherwise. Peptide and RNA were incubated together for 15 min on ice in 10 μl binding reactions containing 10 mM HEPES-KOH, pH 7.5, 100 mM KCl, 1 mM MgCl2, 0.5 mM EDTA, 1 mM dithithreitol, 50 μg/ml E. coli tRNA, and 10% glycerol. To determine relative binding affinities, 0.5 nM radiolabeled IIB RNA (or IIB mutant) was titrated with peptide. Peptide-RNA complexes were resolved in 10% polyacrylamide, 0.5x TBE gels that had been prerun for 1 hr and allowed to cool to 4° C. Gels were electrophoresed at 220 V for 3 hr at 4° C., dried, and autoradiographed.\n(§2) FIG. 3C. Relationship between helix content of the Rev34-50 peptides and RNA-binding specificity. Apparent Kd s (the peptide concentration at which 50% of the RNA was shifted) were determined for wild-type (specific; Ksp) and mutant (nonspecific; Knonsp) IIB RNAs from the date in FIGS. 3A and 3B. Specificity, the ratio of specific to nonspecific apparent association constants (Ka s) is plotted against the helix content for each peptide, determined from the CD ellipticity at 222 nm (Chen et al., (1974) \"Determination of the Helix and Beta Form of Proteins in Aqueous Solution by Circular Dichroism\" Biochemistry 13:3350-3359 ) Peptide I: helix=0.1%; ksp =2000 nM; Knonsp =3000 nM. Peptide II: helix=3.9%; Ksp =300 nM; Knonsp =2000 nM. Peptide III: helix=10.9%; Ksp =100 nM; Knonsp =2000 nM. Peptide IV: helix=27.9%; Ksp =40 nM; Knonsp =2000 nM. Peptide V: helix=51.2%; Ksp =20 nM; Knonsp 1500 nM."}, "wild-type RRE IIB RNA": {"target": "wild-type RRE IIB RNA", "assay_type": "binding, HIV-1", "conditions": "for Kd: read-out: Ksp (apparent Kd, wild-type IIB RNA)", "method": "as §1, §2"}, "[1]": {"assay": "Circular dichroism, α-helix content", "assay_type": "physicochemical", "conditions": "for % Helix (α-helix content): from CD ellipticity at 222 nm, 4° C., pH 7.5", "method": "CD spectra were measured using an Aviv model 62DS spectropolarimeter. Samples were prepared in 10 mM potassium phosphate buffer, pH 7.5 and 100 mM KF, and temperature was maintained at 4° C. unless described otherwise. Spectra were recorded from 320 nm to 190 nm using a 1 cm pathlength cuvette and the signal was averaged for 10 sec. Scans were repeated five times and averaged. Peptide concentrations were typically 5-20 μM and ellipticity was calculated per amino acid residue.\nas §2"}, "[2]": {"system": "IIB RNA mutant A71 (G71 to A71)", "assay": "RNA-binding gel shift assay, A71 mutant IIB RNA", "set-up": "species or system HIV-1", "conditions": "in the presence of tRNA", "method": "as §1\n(§3) FIG. 1B. Peptide binding to IIB mutants. Binding reactions were carried out in the presence of tRNA at the peptide concentrations indicated, and free RNA and peptide-RNA complexes were resolved by the gel shift assay. Each pair of lanes corresponds to RNA alone and peptide-RNA binding reactions. […]. The wild-type lanes on both sides of the gel are identical. The slower mobility of the A71 mutant in the absence of peptide may indicate that its unbound conformation is different than wild-type IIB. […] This phenomenon has been seen with other mutant RNAs and with mutant Rev peptides, and has been interpreted as differences in RNA conformation between specific and nonspecific complexes (Kjems et al. (1992), supra)."}, "[3]": {"system": "IIB RNA mutant A47 (G47 to A47)", "assay": "RNA-binding gel shift assay, A47 mutant IIB RNA", "set-up": "species or system HIV-1", "conditions": "in the presence of tRNA", "method": "as §1, §3"}}, "note": "Entries after “also recorded” stand apart in the source; their conditions may differ. Residues, ends and D or L forms follow the SMILES beside them."}
{"smiles": "C[C@H](NC(=O)[C@H](CCC(N)=O)NC(=O)[C@H](CCCNC(=N)N)NC(=O)[C@@H](N)[C@@H](C)O)C(=O)N[C@@H](CCCNC(=N)N)C(=O)N[C@@H](CCCNC(=N)N)C(=O)N[C@@H](CC(N)=O)C(=O)N[C@@H](CCCNC(=N)N)C(=O)N[C@@H](CCCNC(=N)N)C(=O)N[C@@H](CCCNC(=N)N)C(=O)N[C@@H](CCCNC(=N)N)C(=O)N[C@@H](Cc1c[nH]c2ccccc12)C(=O)N[C@@H](CCCNC(=N)N)C(=O)N[C@@H](CCC(=O)O)C(=O)N[C@@H](CCCNC(=N)N)C(=O)N[C@@H](CCC(N)=O)C(=O)N[C@@H](CCCNC(=N)N)C(N)=O", "note": "[Peptide II, N-Rev34-50 --am] (H-TRQARRNRRRRWRERQR-NH2)", "values": [{"measurement": "Kd", "setting": "mutant (C46-G74) IIB RNA", "result": 2000, "unit": "nM"}, {"measurement": "Kd", "setting": "wild-type RRE IIB RNA", "result": 300, "unit": "nM"}, {"measurement": "% Helix (α-helix content)", "setting": "[1]", "result": 3.9, "unit": "%"}, {"measurement": "% Helix (α-helix content)", "setting": "[1]; listed as N-Rev34-50 --am", "result": "approximately 4%"}]}
{"smiles": "CC(=O)N[C@H](C(=O)N[C@@H](CCCNC(=N)N)C(=O)N[C@@H](CCC(N)=O)C(=O)N[C@@H](C)C(=O)N[C@@H](CCCNC(=N)N)C(=O)N[C@@H](CCCNC(=N)N)C(=O)N[C@@H](CC(N)=O)C(=O)N[C@@H](CCCNC(=N)N)C(=O)N[C@@H](CCCNC(=N)N)C(=O)N[C@@H](CCCNC(=N)N)C(=O)N[C@@H](CCCNC(=N)N)C(=O)N[C@@H](Cc1c[nH]c2ccccc12)C(=O)N[C@@H](CCCNC(=N)N)C(=O)N[C@@H](CCC(=O)O)C(=O)N[C@@H](CCCNC(=N)N)C(=O)N[C@@H](CCC(N)=O)C(=O)N[C@@H](CCCNC(=N)N)C(N)=O)[C@@H](C)O", "note": "[Peptide III] (Ac-TRQARRNRRRRWRERQR-NH2)", "values": [{"measurement": "Kd", "setting": "mutant (C46-G74) IIB RNA", "result": 2000, "unit": "nM"}, {"measurement": "Kd", "setting": "wild-type RRE IIB RNA", "result": 100, "unit": "nM"}, {"measurement": "% Helix (α-helix content)", "setting": "[1]", "result": 10.9, "unit": "%"}]}
{"smiles": "C[C@H](NC(=O)[C@H](CCC(N)=O)NC(=O)[C@H](CCCNC(=N)N)NC(=O)[C@@H](N)[C@@H](C)O)C(=O)N[C@@H](CCCNC(=N)N)C(=O)N[C@@H](CCCNC(=N)N)C(=O)N[C@@H](CC(N)=O)C(=O)N[C@@H](CCCNC(=N)N)C(=O)N[C@@H](CCCNC(=N)N)C(=O)N[C@@H](CCCNC(=N)N)C(=O)N[C@@H](CCCNC(=N)N)C(=O)N[C@@H](Cc1c[nH]c2ccccc12)C(=O)N[C@@H](CCCNC(=N)N)C(=O)N[C@@H](CCC(=O)O)C(=O)N[C@@H](CCCNC(=N)N)C(=O)N[C@@H](CCC(N)=O)C(=O)N[C@@H](CCCNC(=N)N)C(=O)O", "note": "[Peptide I] (H-TRQARRNRRRRWRERQR-OH)", "values": [{"measurement": "Kd", "setting": "mutant (C46-G74) IIB RNA", "result": 3000, "unit": "nM"}, {"measurement": "specific RNA binding / discrimination between wild-type and mutant IIB RNAs (in words)", "setting": "wild-type RRE IIB RNA", "result": "binds only slightly better to wild-type IIB than to the mutant RNA; also recorded: essentially unable to discriminate between wild-type and mutant RNAs"}, {"measurement": "Kd", "setting": "wild-type RRE IIB RNA", "result": 2000, "unit": "nM"}, {"measurement": "α-helix content by CD (in words)", "setting": "[1]; CD spectra", "result": "mostly unstructured"}, {"measurement": "% Helix (α-helix content)", "setting": "[1]", "result": 0.1, "unit": "%"}]}
{"smiles": "C[C@H](NC(=O)[C@H](CCC(N)=O)NC(=O)[C@H](CCCNC(=N)N)NC(=O)[C@@H](N)[C@@H](C)O)C(=O)N[C@@H](CCCNC(=N)N)C(=O)N[C@@H](CCCNC(=N)N)C(=O)N[C@@H](CC(N)=O)C(=O)N[C@@H](CCCNC(=N)N)C(=O)N[C@@H](CCCNC(=N)N)C(=O)N[C@@H](CCCNC(=N)N)C(=O)N[C@@H](CCCNC(=N)N)C(=O)N[C@@H](Cc1c[nH]c2ccccc12)C(=O)N[C@@H](CCCNC(=N)N)C(=O)N[C@@H](CCC(=O)O)C(=O)N[C@@H](CCCNC(=N)N)C(=O)N[C@@H](CCC(N)=O)C(=O)N[C@@H](CCCNC(=N)N)C(N)=O", "note": "[Rev34-50] (H-TRQARRNRRRRWRERQR-NH2)", "values": [{"measurement": "Reduction of affinity compared to wild-type IIB", "setting": "mutant (C46-G74) IIB RNA; C46-G74 base pair mutant, in the presence of tRNA", "result": "about 10 fold"}, {"measurement": "Reduction of affinity compared to wild-type IIB", "setting": "[2]", "result": "about 10 fold"}, {"measurement": "Reduction of affinity compared to wild-type IIB", "setting": "[3]", "result": "about 10 fold"}]}
